Assay results taken from ChEMBL document CHEMBL4414672, “Synthesis of certain benzothieno[3,2-d]pyrimidine derivatives as a selective SIRT2 inhibitors” (Eur J Med Chem, 2020).

What was measured:
Format in all cases: functional
[1] = tested on: SK-MEL-28; experiment: Growth inhibition of human SK-MEL-28 cells at 10^-5 M incubated for 48 hrs by sulforhodamine B assay; details: SK-MEL-28, 48 h, read-out: GI
[2] = tested on: COLO 205; experiment: Growth inhibition of human COLO205 cells at 10^-5 M incubated for 48 hrs by sulforhodamine B assay; details: COLO 205, 48 h, read-out: GI
[3] = tested on: CAKI-1; experiment: Growth inhibition of human Caki1 cells at 10^-5 M incubated for 48 hrs by sulforhodamine B assay; details: CAKI-1, 48 h, read-out: GI
[4] = tested on: MDA-MB-468; experiment: Growth inhibition of human MDA-MB-468 cells at 10^-5 M incubated for 48 hrs by sulforhodamine B assay; details: MDA-MB-468, 48 h, read-out: GI
[5] = tested on: EKVX; experiment: Growth inhibition of human EKVX cells at 10^-5 M incubated for 48 hrs by sulforhodamine B assay; details: read-out: GI
[6] = tested on: MCF7; experiment: Growth inhibition of human MCF7 cells at 10^-5 M incubated for 48 hrs by sulforhodamine B assay; details: MCF7, 48 h, read-out: GI
[7] = tested on: MDA-MB-435; experiment: Growth inhibition of human MDA-MB-435 cells at 10^-5 M incubated for 48 hrs by sulforhodamine B assay; details: MDA-MB-435, 48 h, read-out: GI
[8] = tested on: HCT-15; experiment: Growth inhibition of human HCT15 cells at 10^-5 M incubated for 48 hrs by sulforhodamine B assay; details: HCT-15, 48 h, read-out: GI
[9] = tested on: SF-268; experiment: Growth inhibition of human SF268 cells at 10^-5 M incubated for 48 hrs by sulforhodamine B assay; details: SF-268, 48 h, read-out: GI
[10] = tested on: HL-60(TB); experiment: Growth inhibition of human HL-60(TB) cells at 10^-5 M incubated for 48 hrs by sulforhodamine B assay; details: HL-60, 48 h, read-out: GI
[11] = tested on: BT-549; experiment: Growth inhibition of human BT549 cells at 10^-5 M incubated for 48 hrs by sulforhodamine B assay; details: BT-549, 48 h, read-out: GI
[12] = tested on: DU-145; experiment: Growth inhibition of human DU145 cells at 10^-5 M incubated for 48 hrs by sulforhodamine B assay; details: DU-145, 48 h, read-out: GI
[13] = tested on: A549; experiment: Growth inhibition of human A549/ATCC cells at 10^-5 M incubated for 48 hrs by sulforhodamine B assay; details: A549, 48 h, read-out: GI
[14] = tested on: OVCAR-5; experiment: Growth inhibition of human OVCAR5 cells at 10^-5 M incubated for 48 hrs by sulforhodamine B assay; details: OVCAR-5, 48 h, read-out: GI
[15] = tested on: SK-MEL-5; experiment: Growth inhibition of human SK-MEL-5 cells at 10^-5 M incubated for 48 hrs by sulforhodamine B assay; details: SK-MEL-5, 48 h, read-out: GI
[16] = tested on: MOLT-4; experiment: Growth inhibition of human MOLT4 cells at 10^-5 M incubated for 48 hrs by sulforhodamine B assay; details: MOLT-4, 48 h, read-out: GI
[17] = tested on: HCT-116; experiment: Growth inhibition of human HCT116 cells at 10^-5 M incubated for 48 hrs by sulforhodamine B assay; details: HCT-116, 48 h, read-out: GI
[18] = tested on: SF-295; experiment: Growth inhibition of human SF295 cells at 10^-5 M incubated for 48 hrs by sulforhodamine B assay; details: SF-295, 48 h, read-out: GI
[19] = tested on: LOX IMVI; experiment: Growth inhibition of human LOXIMVI cells at 10^-5 M incubated for 48 hrs by sulforhodamine B assay; details: read-out: GI
[20] = tested on: OVCAR-4; experiment: Growth inhibition of human OVCAR4 cells at 10^-5 M incubated for 48 hrs by sulforhodamine B assay; details: OVCAR-4, 48 h, read-out: GI
[21] = tested on: 786-0; experiment: Growth inhibition of human 786-0 cells at 10^-5 M incubated for 48 hrs by sulforhodamine B assay; details: 786-0, 48 h, read-out: GI
[22] = tested on: U-251; experiment: Growth inhibition of human U251 cells at 10^-5 M incubated for 48 hrs by sulforhodamine B assay; details: U-251, 48 h, read-out: GI
[23] = tested on: NCI-H460; experiment: Growth inhibition of human NCI-H460 cells at 10^-5 M incubated for 48 hrs by sulforhodamine B assay; details: NCI-H460, 48 h, read-out: GI
[24] = tested on: UACC-257; experiment: Growth inhibition of human UACC257 cells at 10^-5 M incubated for 48 hrs by sulforhodamine B assay; details: UACC-257, 48 h, read-out: GI
[25] = tested on: HT-29; experiment: Growth inhibition of human HT-29 cells at 10^-5 M incubated for 48 hrs by sulforhodamine B assay; details: HT-29, 48 h, read-out: GI
[26] = tested on: NCI/ADR-RES; experiment: Growth inhibition of human NCI/ADR-RES cells at 10^-5 M incubated for 48 hrs by sulforhodamine B assay; details: read-out: GI
[27] = tested on: CCRF-CEM; experiment: Growth inhibition of human CCRF-CEM cells at 10^-5 M incubated for 48 hrs by sulforhodamine B assay; details: read-out: GI
[28] = tested on: ACHN; experiment: Growth inhibition of human ACHN cells at 10^-5 M incubated for 48 hrs by sulforhodamine B assay; details: read-out: GI
[29] = tested on: NCI-H226; experiment: Growth inhibition of human NCI-H226 cells at 10^-5 M incubated for 48 hrs by sulforhodamine B assay; details: NCI-H226, 48 h, read-out: GI
[30] = tested on: SNB-75; experiment: Growth inhibition of human SNB75 cells at 10^-5 M incubated for 48 hrs by sulforhodamine B assay; details: SNB-75, 48 h, read-out: GI
[31] = tested on: Hs-578T; experiment: Growth inhibition of human Hs 578T cells at 10^-5 M incubated for 48 hrs by sulforhodamine B assay; details: read-out: GI
[32] = tested on: UO-31; experiment: Growth inhibition of human UO31 cells at 10^-5 M incubated for 48 hrs by sulforhodamine B assay; details: UO-31, 48 h, read-out: GI
[33] = tested on: HOP-62; experiment: Growth inhibition of human HOP62 cells at 10^-5 M incubated for 48 hrs by sulforhodamine B assay; details: HOP-62, 48 h, read-out: GI
[34] = tested on: IGROV-1; experiment: Growth inhibition of human IGROV1 cells at 10^-5 M incubated for 48 hrs by sulforhodamine B assay; details: IGROV-1, 48 h, read-out: GI
[35] = tested on: HCC 2998; experiment: Growth inhibition of human HCC2998 cells at 10^-5 M incubated for 48 hrs by sulforhodamine B assay; details: HCC 2998, 48 h, read-out: GI
[36] = tested on: SW-620; experiment: Growth inhibition of human SW620 cells at 10^-5 M incubated for 48 hrs by sulforhodamine B assay; details: SW-620, 48 h, read-out: GI
[37] = tested on: NCI-H522; experiment: Growth inhibition of human NCI-H522 cells at 10^-5 M incubated for 48 hrs by sulforhodamine B assay; details: NCI-H522, 48 h, read-out: GI
[38] = tested on: KM12; experiment: Growth inhibition of human KM12 cells at 10^-5 M incubated for 48 hrs by sulforhodamine B assay; details: KM12, 48 h, read-out: GI

## N=C1Nc2c(sc3ccc(Cl)cc23)C(c2cccc([N+](=O)[O-])c2)N1 (stereo unspecified)
[1]
  inhibition of growth at 10 µM: 4.08%
[2]
  inhibition of growth at 10 µM: -31%
[3]
  inhibition of growth at 10 µM: -10.8%
[4]
  inhibition of growth at 10 µM: 1.02%
[5]
  inhibition of growth at 10 µM: 15.1%
[6]
  inhibition of growth at 10 µM: 10.7%
[7]
  inhibition of growth at 10 µM: -4.98%
[8]
  inhibition of growth at 10 µM: -4.21%
[9]
  inhibition of growth at 10 µM: -1.81%
[10]
  inhibition of growth at 10 µM: 5.44%
[11]
  inhibition of growth at 10 µM: 5.75%
[12]
  inhibition of growth at 10 µM: 20.5%
[13]
  inhibition of growth at 10 µM: 20.4%
[14]
  inhibition of growth at 10 µM: -1.04%
[15]
  inhibition of growth at 10 µM: -2.55%
[16]
  inhibition of growth at 10 µM: 21.2%
[17]
  inhibition of growth at 10 µM: 2.65%
[18]
  inhibition of growth at 10 µM: -5.78%
[19]
  inhibition of growth at 10 µM: -9.93%
[20]
  inhibition of growth at 10 µM: -4.7%
[21]
  inhibition of growth at 10 µM: 16.5%
[22]
  inhibition of growth at 10 µM: 0.68%
[23]
  inhibition of growth at 10 µM: 14.7%
[24]
  inhibition of growth at 10 µM: 9.45%
[25]
  inhibition of growth at 10 µM: 1.65%
[26]
  inhibition of growth at 10 µM: 8.91%
[27]
  inhibition of growth at 10 µM: 8.41%
[28]
  inhibition of growth at 10 µM: 22.8%
[29]
  inhibition of growth at 10 µM: 14.4%
[30]
  inhibition of growth at 10 µM: -4.54%
[31]
  inhibition of growth at 10 µM: -17.4%
[32]
  inhibition of growth at 10 µM: 11.1%
[33]
  inhibition of growth at 10 µM: -6.16%
[34]
  inhibition of growth at 10 µM: 4.94%
[35]
  inhibition of growth at 10 µM: 9.09%
[36]
  inhibition of growth at 10 µM: 3.17%
[37]
  inhibition of growth at 10 µM: -4.45%
[38]
  inhibition of growth at 10 µM: 6.62%

## S=C1Nc2c(sc3ccc(Cl)cc23)C(c2cccc(Br)c2)N1 (stereo unspecified)
[1]
  inhibition of growth at 10 µM: -15.7%
[2]
  inhibition of growth at 10 µM: -2.63%
[3]
  inhibition of growth at 10 µM: 19.2%
[4]
  inhibition of growth at 10 µM: -5.67%
[5]
  inhibition of growth at 10 µM: 12.4%
[6]
  inhibition of growth at 10 µM: -11.9%
[7]
  inhibition of growth at 10 µM: -2.42%
[8]
  inhibition of growth at 10 µM: 0.95%
[9]
  inhibition of growth at 10 µM: 1.41%
[10]
  inhibition of growth at 10 µM: -6.42%
[11]
  inhibition of growth at 10 µM: -10.2%
[12]
  inhibition of growth at 10 µM: -11.9%
[13]
  inhibition of growth at 10 µM: -7.88%
[14]
  inhibition of growth at 10 µM: -0.03%
[15]
  inhibition of growth at 10 µM: 3.95%
[16]
  inhibition of growth at 10 µM: 11.5%
[17]
  inhibition of growth at 10 µM: 10.9%
[18]
  inhibition of growth at 10 µM: 1%
[19]
  inhibition of growth at 10 µM: -0.61%
[20]
  inhibition of growth at 10 µM: 8.7%
[21]
  inhibition of growth at 10 µM: -0.33%
[22]
  inhibition of growth at 10 µM: -7.09%
[23]
  inhibition of growth at 10 µM: 7.39%
[24]
  inhibition of growth at 10 µM: -8.63%
[25]
  inhibition of growth at 10 µM: 0.35%
[26]
  inhibition of growth at 10 µM: -3.15%
[27]
  inhibition of growth at 10 µM: -16.1%
[28]
  inhibition of growth at 10 µM: 4.77%
[29]
  inhibition of growth at 10 µM: 15.2%
[30]
  inhibition of growth at 10 µM: 18.5%
[31]
  inhibition of growth at 10 µM: 4.32%
[32]
  inhibition of growth at 10 µM: -18.3%
[33]
  inhibition of growth at 10 µM: 15.5%
[34]
  inhibition of growth at 10 µM: 22.6%
[35]
  inhibition of growth at 10 µM: -27.2%
[36]
  inhibition of growth at 10 µM: -1.6%
[37]
  inhibition of growth at 10 µM: 12%
[38]
  inhibition of growth at 10 µM: -2.38%
